The values that follow come from publication PMC9144829, “Histone Deacetylase Inhibitory Activity and Antiproliferative Potential of New [6]-Shogaol Derivatives” (Molecules, 2022).

Read-outs that look alike come from different tables or passages of the source.

In assay [1] the test system is HDAC enzymes (HeLa nuclear extract, mixed-HDAC isoforms). The assay is described as follows: Fluor-de-Lys HDAC activity assay kit, HeLa nuclear extract as source of HDAC enzymes. The following applies: compounds at 100 µM. Format: biochemical, human. On the procedure:
The in vitro HDAC inhibitions of the obtained compounds were carried out with the assay kit containing mixed-HDAC isoforms. […] Therefore, the results were not fully related. However, compounds with good binding affinities should have the potential to be specific HDAC inhibitors for each isoform.
The semi-synthetic derivatives were evaluated for their ability to inhibit HDAC enzymes. Inhibition of HDAC activity in vitro was assessed using the Fluor-de-Lys HDAC activity assay kit (Biomol, Enzo Life Sciences International, Inc., Farmingdale, NY, USA). The HeLa nuclear extract provided with the kit was used as a source of HDAC enzymes for the in vitro study. TSA was used as the positive control. The HeLa nuclear extract, substrate, buffer and inhibitors were incubated. Deacetylation of the substrate was performed next by adding a developer to generate a fluorophore. The spectra Max Gemini XPS microplate spectrofluorometer (Molecular Devices, San Jose, CA, USA) was used to measure fluorescence signal with excitation at 360 nm and emission at 460 nm. A decrease in fluorescence signal indicated an inhibition of HDAC activity. Trichostatin A (TSA) was used as a positive control. All experiments were carried out in triplicate.

Assay [2] relates to human cervical cancer (HeLa) cells. The assay is described as follows: MTT assay, HeLa cells. It counts as cell-based. As to conditions: read-out: IC50 Values (Mean ± SD; n = 3), HeLa cells. On the procedure:
(§1) The MTT reduction assay was performed with non-cancer (Vero), human cervical cancer (HeLa), human colon cancer (HCT116), human breast adenocarcinoma cancer (MCF-7), and cholangiocarcinoma (H-69 […], KKU-100 and KKU-M213B) cell lines according to the previously described method. Briefly, cells were seeded in 96-well plates. The next day, cells were exposed to the selected compounds at various concentrations and incubated for 24, 48 and 72 h. After incubation, the culture medium was exchanged with 110 µL of MTT (0.5 mg/mL in PBS medium) and further incubated for 2 h. The amount of MTT formazan product was determined after dissolving in DMSO by measuring its absorbance with a microplate reader (Bio-Rad Laboratories, Hercules, CA, USA) at a test wavelength of 550 nm and a reference wavelength of 655 nm. The cell viability was expressed as a percentage of the viable cells of control culture conditions, and the IC50 values of each group were calculated.
Background: Tetrazolium assays rely on reduction of a dye to a coloured formazan, in cell work by metabolically active cells.

In assay [3] the test system is human colon cancer (HCT116) cells. The assay is described as follows: MTT assay, HCT116 cells. It counts as cell-based. On the procedure: as §1
Assay [4] concerns human breast adenocarcinoma cancer (MCF-7) cells. The assay is described as follows: MTT assay, MCF-7 cells. Format: cell-based. On the procedure: as §1
A further assay deals with H-69 cells. The assay is described as follows: MTT assay, H-69 cells. Format: cell-based. On the procedure: as §1
Assay [5] has as its system cholangiocarcinoma KKU-100 cells. The assay is described as follows: MTT assay, KKU-100 cells. Format: cell-based, human. On the procedure:
as §1

In assay [6] the test system is cholangiocarcinoma KKU-M213B cells. The assay is described as follows: MTT assay, KKU-M213B cells. Format: cell-based, human. The following applies: read-out: IC50 Values (Mean ± SD; n = 3). On the procedure: as §1
In the next assay the test system is Vero cells. The assay is described as follows: MTT assay, non-cancer Vero cells. Format: cell-based. As to conditions: Chlorocebus sabaeus, read-out: IC50 Values (Mean ± SD; n = 3). On the procedure: as §1
Setting [7] is: read-out: IC50 Values (Mean ± SD; n = 3), 24 h.
The mark [8] stands for this setting: read-out: IC50 Values (Mean ± SD; n = 3), 48 h.
[9] abbreviates: read-out: IC50 Values (Mean ± SD; n = 3), 72 h.

Take “10-(4-Hydroxy-3-methoxyphenyl)-6-((2-hydroxyphenyl)amino)decan-8-one [Compound 6b]”: in assay [1], the “%HDAC Inhibition” value came to 64%.
Still for that read-out and setting: the result for “10-(4-Hydroxy-3-methoxyphenyl)-6-((2-mercaptophenyl)amino)decan-8-one [Compound 6a]” reads 54%; that for “10-(4-Hydroxy-3-methoxyphenyl)-6-(phenylamino)decan-8-one [Compound 6c]”, 53%.
In general, IC50 refers to the midpoint of a concentration-inhibition curve. As to `N.N.[Cl][Pt][Cl]` [Cisplatin, reference compound], the IC50 in assay [2] (24 h) was 17.1 ± 1 µM; in assay [2] (48 h), 9.97 ± 0.34 µM; in assay [2] (72 h), 6.45 ± 0.12 µM; in assay [3] (setting [7]) it was 21 ± 2.56 µM; in assay [3] (setting [8]) it was 7.61 ± 0.61 µM; in assay [3] (setting [9]), 4.98 ± 0.77 µM. The IC50 in assay [4] (setting [7]) was 29.2 ± 1.35 µM; in assay [4] (setting [8]), 13.8 ± 0.54 µM; in assay [4] (setting [9]) it was 10.4 ± 0.25 µM; in the assay on H-69 cells (setting [7]), > 20 µM; in the assay with H-69 cells (setting [8]) it was > 20 µM; in the assay on H-69 cells (setting [9]), 15.8 ± 0.35 µM. The 50% inhibitory concentration (IC50) in assay [5] (setting [7]) was 17.32 ± 0.12 µM; in assay [5] (setting [8]), 11.2 ± 0.14 µM; in assay [5] (setting [9]), 7.57 ± 0.07 µM; in assay [6] (24 h), > 20 µM; in assay [6] (48 h) it was 18.6 ± 0.57 µM; in assay [6] (72 h) it was 13 ± 0.61 µM.
`CCCCC/C=C/C(CCc1ccc(O)c(OC)c1)=N\N` [Compound 4a, 4-((3Z,4E)-3-Hydrazonodec-4-en-1-yl)-2-methoxyphenol]: in assay [1], the “%HDAC Inhibition” value came to 73%.
Same read-out and setting: the same measure for `CCCCC/C=C/C(CCc1ccc(O)c(OC)c1)=N\Nc1ccc(C(=O)O)cc1` [Compound 4b, 4-(2-((3Z,4E)-1-(4-Hydroxy-3-methoxyphenyl)dec-4-en-3-ylidene)hydrazinyl)benzo-ic acid]: 73%.
As for `CCCCC/C=C/C(CCc1ccc(O)c(OC)c1)=N\Nc1ccccn1` [Compound 4c, 2-Methoxy-4-((3Z,4E)-3-(2-(pyridin-2-yl)hydrazono)dec-4-en-1-yl)phenol], the “%HDAC Inhibition” value in assay [1] is listed as 80%. Further, the IC50 worked out at 69.5 ± 3.94 µM with Vero cells (24 h); 49.31 ± 0.18 µM in the assay on Vero cells (48 h); 45.2 ± 0.49 µM with Vero cells (72 h); 49.3 ± 1.27 µM in assay [2] (Homo sapiens, 24 h); 33.4 ± 1.09 µM in assay [2] (Homo sapiens, 48 h); 29.3 ± 0.88 µM in assay [2] (Homo sapiens, 72 h). Also, the IC50 in assay [3] (Homo sapiens, HCT-116, read-out: IC50 Values (Mean ± SD; n = 3), 24 h) was 20.2 ± 0.46 µM; in assay [3] (Homo sapiens, HCT-116, read-out: IC50 Values (Mean ± SD; n = 3), 48 h), 18.4 ± 0.32 µM; in assay [3] (Homo sapiens, HCT-116, read-out: IC50 Values (Mean ± SD; n = 3), 72 h), 17.2 ± 0.23 µM; in assay [4] (Homo sapiens, MCF7, read-out: IC50 Values (Mean ± SD; n = 3), 24 h) it was 46.4 ± 1.3 µM; in assay [4] (Homo sapiens, MCF7, read-out: IC50 Values (Mean ± SD; n = 3), 48 h), 39.4 ± 0.68 µM; in assay [4] (Homo sapiens, MCF7, read-out: IC50 Values (Mean ± SD; n = 3), 72 h) it was 27.1 ± 0.47 µM. Moreover, the IC50 worked out at 40 ± 1.57 µM in the assay with H-69 cells (Homo sapiens, NCI-H69, read-out: IC50 Values (Mean ± SD; n = 3), 24 h); 30.6 ± 0.82 µM in the assay on H-69 cells (Homo sapiens, NCI-H69, read-out: IC50 Values (Mean ± SD; n = 3), 48 h); 28.7 ± 0.36 µM in the assay with H-69 cells (Homo sapiens, NCI-H69, read-out: IC50 Values (Mean ± SD; n = 3), 72 h); 36.8 ± 0.89 µM in assay [5] (Homo sapiens, KKU100, read-out: IC50 Values (Mean ± SD; n = 3), 24 h); 29.7 ± 0.96 µM in assay [5] (Homo sapiens, KKU100, read-out: IC50 Values (Mean ± SD; n = 3), 48 h); 19.2 ± 0.41 µM in assay [5] (Homo sapiens, KKU100, read-out: IC50 Values (Mean ± SD; n = 3), 72 h). The IC50 came out at 39 ± 0.27 µM in assay [6] (Homo sapiens, 24 h); 28.98 ± 0.26 µM in assay [6] (Homo sapiens, 48 h); 25.9 ± 0.71 µM in assay [6] (Homo sapiens, 72 h).
On to `CCCCC/C=C/C(CCc1ccc(O)c(OC)c1)=N\NC1=NCC=N1` [Compound 4e, 4-((3Z,4E)-3-(2-(4H-Imidazol-2-yl)hydrazono)dec-4-en-1-yl)-2-methoxyphenol], for which, in assay [1], the “%HDAC Inhibition” value stood at 73%.
`CCCCCC1CC(CCc2ccc(O)c(OC)c2)=NN1c1ccccc1` (stereo not drawn) [Compound 5a, 2-methoxy-4-(2-(5-pentyl-1-phenyl-4,5-dihydro-1H-pyrazol-3-yl)ethyl)phenol]: the “%HDAC Inhibition” value in assay [1] worked out at 74%.
Same read-out and setting: the same measure for `CCCCCC1CC(CCc2ccc(O)c(OC)c2)=NN1c1ccccc1C` (stereo not drawn) [Compound 5b, 2-methoxy-4-(2-(5-pentyl-1-(o-tolyl)-4,5-dihydro-1H-pyrazol-3-yl)ethyl)phenol]: 56%; for `CCCCCC1CC(CCc2ccc(O)c(OC)c2)=NN1c1ccccc1OC` (stereo not drawn) [Compound 5c, 2-methoxy-4-(2-(1-(2-methoxyphenyl)-5-pentyl-4,5-dihydro-1H-pyrazol-3-yl)ethyl) phenol]: 52%; for `CCCCCC1CC(CCc2ccc(O)c(OC)c2)=NN1c1ccc(OC)cc1` (stereo not drawn) [Compound 5d, 2-methoxy-4-(2-(1-(4-methoxyphenyl)-5-pentyl-4,5-dihydro-1H-pyrazol-3-yl)ethyl) phenol]: 67%.
Still for that read-out and setting: the result for `CCCCCC1CC(CCc2ccc(O)c(OC)c2)=NN1c1ccccc1F` (stereo not drawn) [Compound 5e, 4-(2-(1-(2-fluorophenyl)-5-pentyl-4,5-dihydro-1H-pyrazol-3-yl)ethyl)-2-methoxyphenol] reads 54%; that for `CCCCCC1CC(CCc2ccc(O)c(OC)c2)=NN1c1ccc(F)cc1` (stereo not drawn) [Compound 5f, 4-(2-(1-(4-fluorophenyl)-5-pentyl-4,5-dihydro-1H-pyrazol-3-yl)ethyl)-2-methoxyphenol], 77%; that for `CCCCCC1CC(CCc2ccc(O)c(OC)c2)=NN1c1cccc(Cl)c1` (stereo not drawn) [Compound 5g, 4-(2-(1-(3-chlorophenyl)-5-pentyl-4,5-dihydro-1H-pyrazol-3-yl)ethyl)-2-methoxyphenol], 60%.
Still for that read-out and setting: the same measure for `CCCCCC1CC(CCc2ccc(O)c(OC)c2)=NN1c1ccc(Cl)cc1` (stereo not drawn) [Compound 5h, 4-(2-(1-(4-chlorophenyl)-5-pentyl-4,5-dihydro-1H-pyrazol-3-yl)ethyl)-2-methoxyphenol]: 68%; for `CCCCCC1CC(CCc2ccc(O)c(OC)c2)=NN1c1cccc([N+](=O)[O-])c1` (stereo not drawn) [Compound 5i, 2-methoxy-4-(2-(1-(3-nitrophenyl)-5-pentyl-4,5-dihydro-1H-pyrazol-3-yl)ethyl)phe nol]: 77%.
Turning to `CCCCCC1CC(CCc2ccc(O)c(OC)c2)=Nc2ccccc2N1` (stereo not drawn) [Compound 7, 2-Methoxy-4-(2-(2-pentyl-2,3-dihydro-1H-benzo[b][1,4]diazepin-4-yl)ethyl)phenol], the “%HDAC Inhibition” value in assay [1] is 63%.
Same read-out and setting: the same measure for `CC(/C=C/C(=O)NO)=C\[C@@H](C)C(=O)c1ccc(N(C)C)cc1` [TSA, Trichostatin A, reference compound]: 92%.
